Measurements from patent publication EP4810052A2, “HCRHR2 SELECTIVE POLYPEPTIDES” (Gubra A/S, priority 2023, dated 2026).
pEC50: −log10 of the molar value. Where two headings read alike, the source gives them in different places. Marks after values point to notes of the source that are not given here. Starred links: 1 amine or outer side, 2 acyl side, 3 side chain; linkers in the order of their positions; H or OH if unused. Non-standard residues stand in square brackets, D forms with d. Residues, ends and D or L forms follow the SMILES beside them. Groups on a side chain read outwards from the residue. *: point of attachment. C20 diacid = O=C(O)CCCCCCCCCCCCCCCCCCC(=O)*; γGlu = O=C(O)[C@H](CCC(=O)[*:2])N[*:1]; NMeI = CC[C@H](C)[C@H](NC)C(=O)O; Nle = CCCC[C@H](N)C(=O)O; AEEA = NCCOCCOCC(=O)O; Aib = CC(C)(N)C(=O)O

Key:
[1] = Effect on acute food intake in mice; assay type: in vivo; conditions: single subcutaneous dose
Outline: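 Male NMRI mice (n=7-8 per group) were fasted from six hours before the dark phase. They received a single subcutaneous peptide dose one hour before dark onset. Hourly food intake was monitored for 72 h and expressed as percent reduction versus vehicle, analysed by one-way ANOVA with Dunnett's test.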

[2] = biological target: T1, hCRHR2 (Homo sapiens, UniProt Q13324); experiment: HTRF cAMP assay, determination of hCRHR2 potency (peptide libraries 5 conc., purified peptides 11 conc.); assay type: cell-based; conditions: for Selectivity ratio (hCRHR1/ hCRHR2): Table 5; for pEC50: Table 5, purified peptides, read-out: hCRHR2 EC50
T1 sequence (Q13324 1-411): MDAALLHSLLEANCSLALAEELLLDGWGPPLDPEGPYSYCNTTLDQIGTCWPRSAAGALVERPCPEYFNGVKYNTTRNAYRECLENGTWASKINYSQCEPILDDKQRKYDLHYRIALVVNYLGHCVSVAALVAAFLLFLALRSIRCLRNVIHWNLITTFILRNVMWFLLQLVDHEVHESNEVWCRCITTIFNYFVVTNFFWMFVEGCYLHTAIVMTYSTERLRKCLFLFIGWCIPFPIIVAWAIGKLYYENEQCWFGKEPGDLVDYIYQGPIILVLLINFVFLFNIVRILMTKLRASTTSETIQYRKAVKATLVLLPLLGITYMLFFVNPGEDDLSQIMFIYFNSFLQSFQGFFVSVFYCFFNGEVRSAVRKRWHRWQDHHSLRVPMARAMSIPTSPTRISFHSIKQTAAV
Outline: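 EC50 derived by variable-slope sigmoid regression of FRET-based cAMP data; cellular cAMP displaced d2-labelled tracer from cryptate anti-cAMP antibody. Stable human CRHR2 CHO-K1 suspension cells, revived from frozen stocks just before the run.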

[3] = PK in rats; assay type: in vivo; design: T½ / MRT: unit not given here; conditions: for half-life: read-out: T½ (converted)
Outline: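 Lean male Sprague Dawley rats (n = 3 per group) got a two-peptide combination at 50 nmol/kg IV and SC. Plasma was sampled from 0.17 to 96 h post dose and analysed by LC-MSMS. PK parameters came from non-compartmental analysis.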

[4] = Thioflavin T fibril formation assay of purified peptides; assay type: physicochemical; design: key: Amyloid fibril formation detected by an increase in ThT fluorescence was denoted with "Yes"; samples without increasing ThT fluorescence hence not forming amyloid fibrils were denoted "No"
Outline: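 Fibril formation read as rising ThT emission at 480 nm (450 nm excitation), 4 µM ThT, over 96 h at 40°C with alternating 5-min rest and 700 rpm shaking cycles, in triplicate. Samples were 200 µM compound in 50 mM phosphate at various pH values, or co-formulated at 200 µM in semaglutide product at pH 7.4.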

[5] = male, Sprague Dawley (RJHan:SD), in vivo, iv, Rat, 50 nmol/kg i.v.
[6] = male, Sprague Dawley (RJHan:SD), in vivo, sc, Rat, 50 nmol/kg s.c.

| SMILES | % FI compared to vehicle, 24 h post-dosing ([1]; 30 nmol/kg) | % FI compared to vehicle, 24 h post-dosing ([1]; 100 nmol/kg) | % FI compared to vehicle, 24 h post-dosing ([1]; 300 nmol/kg) | Selectivity ratio (hCRHR1/ hCRHR2) [2] | pEC50 [2] | MRT ([3]; Rat) | T½ ([3]; Rat) | Fibrillation (pH 7.5) ([4]; pH 7.5) | Solubility pH 7.5, target conc. =10 mg/mL (measured mg/mL) (pH 7.5) [mg/mL] | other results |
| --- | --- | --- | --- | --- | --- | --- | --- | --- | --- | --- |
| CCCC[C@H](NC(=O)[C@@H](NC(=O)[C@H](CCC(=O)O)NC(=O)[C@H](C)NC(=O)[C@H](CC(N)=O)NC(=O)C(C)(C)NC(=O)[C@H](CCCCNC(=O)COCCOCCNC(=O)COCCOCCNC(=O)CC[C@H](NC(=O)CC[C@H](NC(=O)CCCCCCCCCCCCCCCCCCC(=O)O)C(=O)O)C(=O)O)NC(=O)[C@H](C)NC(=O)[C@H](CCC(N)=O)NC(=O)[C@H](CCC(=O)O)NC(=O)[C@H](CCCNC(=N)N)NC(=O)[C@H](C)NC(=O)[C@H](C)NC(=O)[C@H](CCCNC(=N)N)NC(=O)[C@H](C)NC(=O)[C@H](CCCNC(=N)N)NC(=O)[C@H](C)NC(=O)[C@H](CCC(N)=O)NC(=O)[C@H](CO)NC(=O)[C@H](CC(C)C)NC(=O)[C@H](CC(C)C)NC(=O)[C@@H](NC(=O)[C@H](CCC(N)=O)NC(=O)[C@H](CC(C)C)NC(=O)[C@H](CC(C)C)NC(=O)CNC(=O)[C@@H](NC(=O)[C@@H]1CCCN1C(=O)[C@@H](NC(=O)[C@H](CC(=O)O)NC(=O)[C@H](CC(C)C)NC(=O)[C@H](CO)NC(=O)[C@H](CC(C)C)NC(=O)[C@@H](NC(=O)[C@@H]1CCCN1)C(C)C)C(C)C)[C@@H](C)CC)[C@@H](C)CC)[C@@H](C)CC)C(=O)N[C@@H](C)C(=O)N[C@@H](CCC(=O)O)C(=O)N[C@H](C(N)=O)C(C)C [SEQ ID NO: 238] (H-PVLSLDVPIGLLQILLSQARARAAREQAK([AEEA-AEEA-γGlu-γGlu-C20 diacid])[Aib]NAEI[Nle]AEV-NH2) | 29.73*** % | 12.92*** % | 7.94*** % | >6329 | 9.10 | 14.2 | 10.2 | No | 11 | clearance [3, 5]: 0.117 mL/min/kg; half-life [3, 5]: 10.2 h; Cmax [3, 6]: 91 nM; Tmax [3, 6]: 24 h; half-life [3, 6]: 11 h; bioavailability ([3]; male, Sprague Dawley, rat, in vivo, sc): 43%; Amyloid fibril formation + semaglutide (Ozempic®), pH 7.4 ([4]; 200 µM compound dissolved in semaglutide drug product, pH 7.4, listed as None = drug product alone): No; Amyloid fibril formation pH 7.0 ([4]; 200 µM in 50 mM phosphate buffer, pH 7.0): No; Amyloid fibril formation pH 7.5 ([4]; 200 µM in 50 mM phosphate buffer, pH 7.5): No; Amyloid fibril formation pH 8.0 ([4]; 200 µM in 50 mM phosphate buffer, pH 8.0): No; Solubility pH 6.5 (mg/ml) (pH 6.5): 20.4 mg/ml; Solubility pH 7.0 (mg/mL) (pH 7): 20.6 mg/mL; Solubility pH 7.5 (mg/mL) (pH 7.5): 18.0 mg/mL; Solubility pH 7.5 + phenol (mg/mL) (pH 7.5): 17.9 mg/mL |
| CCCC[C@H](NC(=O)[C@@H](NC(=O)[C@H](CCC(=O)O)NC(=O)[C@H](C)NC(=O)[C@H](CC(N)=O)NC(=O)[C@H](CCC(=O)O)NC(=O)[C@H](CCCCNC(=O)COCCOCCNC(=O)COCCOCCNC(=O)CC[C@H](NC(=O)CC[C@H](NC(=O)CCCCCCCCCCCCCCCCCCC(=O)O)C(=O)O)C(=O)O)NC(=O)[C@H](C)NC(=O)[C@H](CCC(N)=O)NC(=O)[C@H](CCC(=O)O)NC(=O)[C@H](CCCNC(=N)N)NC(=O)[C@H](C)NC(=O)[C@H](C)NC(=O)[C@H](CCCNC(=N)N)NC(=O)[C@H](C)NC(=O)[C@H](CCCNC(=N)N)NC(=O)[C@H](C)NC(=O)[C@H](CCC(N)=O)NC(=O)[C@H](CO)NC(=O)[C@H](CC(C)C)NC(=O)[C@H](CC(C)C)NC(=O)[C@@H](NC(=O)[C@H](CCC(N)=O)NC(=O)[C@H](CC(C)C)NC(=O)[C@H](CC(C)C)NC(=O)CNC(=O)[C@@H](NC(=O)[C@@H]1CCCN1C(=O)[C@@H](NC(=O)[C@H](CC(=O)O)NC(=O)[C@H](CC(C)C)NC(=O)[C@H](CO)NC(=O)[C@H](CC(C)C)NC(=O)[C@@H](NC(=O)[C@@H](NC)[C@@H](C)CC)C(C)C)C(C)C)[C@@H](C)CC)[C@@H](C)CC)[C@@H](C)CC)C(=O)N[C@@H](C)C(=O)N[C@@H](CCC(=O)O)C(=O)N[C@H](C(N)=O)C(C)C [compound 101] (H-[NMeI]VLSLDVPIGLLQILLSQARARAAREQAK([AEEA-AEEA-γGlu-γGlu-C20 diacid])ENAEI[Nle]AEV-NH2) | 30.85*** % | 21.44*** % | 8.09*** % | 5435 | 9.04 | 6.8 | 6.5 | No | 11 | – |
